Data as given in US6632797B2, “Method of treating angiogenesis” (priority 1996, dated 2003).

How the values were obtained:
[1] = molecular target: bovine brain clathrin assembly protein-2 (AP-2); assay: Binding to clathrin assembly protein-2, competition with tritiated inositoltetraphosphate; details: competition with 10 nM tritiated inositoltetraphosphate, on ice, ten minutes
Method: The binding assay was done in a total volume of 100 μl buffer containing […] Na HEPES pH 7.1, […], […], 5 mg/ml IgG, 10 nM tritiated inositoltetraphosphate and 1.46 μg of AP-2. […] Incubation was carried out on ice for a period of ten minutes and then the protein was co-precipitated with IgG using 5% (w/w) polyethylene glycol and pelleted by centrifugation at […] for 10 minutes. The supernatants were aspirated, the pellets were wasted with 0.2 ml water and resuspended in 0.2 ml water and transferred to scintillation vials. 5.0 ml of cyto scint fluid was added to each vial and the radioactivity was measured.

[2] = molecular target: T1, Fibroblast growth factor acidic (aFGF) (Homo sapiens, UniProt P05230); assay: aFGF/Matrigel-induced swelling (tumor-like matrix) in nude mice; assay type: in vivo, BALBc nude mice; details: osmotic minipump, 0.4 g/ml, 14 days
T1 construct: purchased Sigma (USA)
Method: Fibroblast growth factor acidic (aFGF) from Sigma (USA), was diluted in a buffer, RPMI-1640 (Life Technologies, UK). 25 μg of aFGF was diluted in 125 μl buffer and 50 μl was transferred to a small Eppendorf tube. 150 μl of Matrigel® basement membrane matrix from Becton and Dickinson (UK) was added to the tube and the content was thoroughly mixed for 60 minutes. All equipment was sterilized by irradiation or autoclaving (115° C. in 10 minutes) before use and all procedures were performed at 7° C. The mixture was kept in an icebath before the animal experiment.
Ten female, specific pathogen free BALBc nude mice with a weight of 18-22 g were maintained in autoclaved type III makrolon cages with filter tops in horizontal air flow cabinets in a barrier unit equipped with HEPA filters. Autoclaved bedding, irradiated feed and sterile filtered water was used. Temperature and humidity was kept constant at 22±2° C., 65±5 RH.
When fibroblast growth factor (FGF) and Matrigel® is mixed and inovulated to nude mice, developments of a swelling process ressembling tumor begin to develop.
A portion of the mixture of Matrigel® and a FGF was inoculated subcutaneously by a 23 G needle in the right flank of the mice. Two days before all mice were surgically prepared with osmotic minipumps (Alzet, model 2002).
To another group of five mice saline was administered as a control group.

[3] = test system: fibroblast growth factor basic (bFGF); assay: bFGF/Matrigel-induced swelling (tumor-like matrix) in nude mice; assay type: in vivo
Method: In a procedure similar to example 3 fibroblast growth factor basic (bFGF) was used.
D-myo-inositol-1,2,6-trisphosphate (IP3) was administered to five mice while another group of five mice, recieving saline, were a control group.

[4] = test system: Nerve growth factors (NGFA from Vipera lebetina Venom and NGFB from Mouse Submaxillary glands); assay: Interaction between NGF and radioactive IP3, co-elution on Sephadex G-25 / Heparin-Sepharose columns; assay type: binding; details: co-elution from Sephadex G-25, 50 mM Hepes pH 7.4
Method: The mixture was incubated for 1 hour at 4° C.
This type of column fractionate substances according to molecular weight.
The incubate was loaded on the column and was eluted with 50 mM Hepes in fractions of 0.4 ml each.
To further determine the interaction, the fractions with radioactivity and UV-absorbance were loaded on a Heparin-Sepharose CL-6B column (Pharmacia Biotech, Sweden) (volume 25 ml, height 20 cm). […] Elution was performed with 50 mM Hepes, pH 7.4 and each fraction of 1 ml was collected for determination of radioactivity and UV absorbance. A peak with radioactivity but without UV absorption was loaded on a similar Sephadex G-25 column as described above and was eluted with the same type of buffer. Maximum radioactivity was obtained in fraction number 13 i.e. in this case the substance with radioactivity was more retained on the column.

[5] = test system: basic fibroblast growth factor (b FGF); assay: b FGF-induced bone formation on the calvaria of mice; assay type: in vivo; set-up: key to Severeness of bone formation: 0: no bone formation; ++++: severe bone formation
Method: Injection of basic fibroblast growth factor (b FGF) stimulates osteoblastic activity and leads to bone formation.
The osmotic minipumps were implanted on day 1.
To the calvaria of each animal, 10 μl of b FGF (concentration 50 μg/ml) was injected four times daily of the period of day 2 to day 4.
After the experimental period of 14 days each animal was investigated macroscopically and the histological preparations were further examined by conventional routines.
Macroscopically visible bone formation was measured according to scale from
0 which represents no bone formation to
++++ which represents severe bone formation

T1 sequence (P05230 whole entry, species assumed): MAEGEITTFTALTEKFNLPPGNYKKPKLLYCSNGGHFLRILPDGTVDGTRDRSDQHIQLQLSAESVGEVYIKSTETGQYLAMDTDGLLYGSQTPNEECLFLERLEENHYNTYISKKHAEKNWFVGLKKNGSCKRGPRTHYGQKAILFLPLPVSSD

For `O=P(O)(O)OC1C(O)C(O)C(O)C(OP(=O)(O)O)C1OP(=O)(O)O` [IP3, D-myo-inositol-1,2,6-trisphosphate], the IC50 [1] was 600 ± 100 nM, the “volume of the formed matrix” value ([2]; Day 1) was 150 mm^3 and the “volume of the formed matrix” value ([2]; Day 4) was 125 mm^3. For the same compound, the “volume of the formed matrix” value ([2]; Day 5) was 90 mm^3, the “volume of the formed matrix” value ([2]; Day 6) was 50 mm^3 and the “volume of the formed matrix” value ([2]; Day 7) was 50 mm^3. The “volume of the formed matrix” value ([2]; Day 8) was 70 mm^3, the “volume of the formed matrix” value ([2]; Day 9) was 70 mm^3 and the “volume of the formed matrix” value ([3]; Day 1) was 180 mm^3. The “volume of the formed matrix” value ([3]; Day 3) was 120 mm^3, the “volume of the formed matrix” value ([3]; Day 5) was 110 mm^3 and the “volume of the formed matrix” value ([3]; Day 7) was 120 mm^3. For the same compound, the “volume of the formed matrix” value ([3]; Day 8) was 110 mm^3, the “volume of the formed matrix” value ([3]; Day 9) was 120 mm^3 and the “histological examinations of the animals” value ([3]; group where IP3 was administered) was “anti-angiogenic effects”. The “interaction between NGF and IP3” value [4] was “strong interaction”, the “histological examination of the calvaria” value ([5]; 120 mg/kg/day for 14 days) was “anti-angiogenic properties” and the “Severeness of bone formation” value ([5]; 120 mg/kg/day osmotic minipump for 14 days, individual animals) was 0.
